Literature values in US11896569B2, “Compositions comprising amino acids for use in the treatment of mucositides in neoplasia patients undergoing radiation therapy and/or chemotherapy” (priority 2015, dated 2024).

Key:
mucositis = details: 16 grams per day
[1] = tested on: patients suffering from head and neck cancer

NC(=O)CC[C@H](N)C(=O)O [glutamine]
treatment/prevention of mucositis (mucositis): significant results in the treatment/prevention of mucositis were not observed | efficacy for the treatment of mucositis ([1]; between 10 and 26 grams/day): ineffective | severity of mucositis induced by antitumor treatments ([1]; daily dose of 30 g): significantly decreases the severity of mucositis
